# Experimental data reported in publication PMC8950173 (Pharmaceuticals, 2022).
# What was measured:
# [1] = Lipophilicity logD7.4, shake-flask method n-octanol/PBS; assay type: physicochemical; conditions: n-octanol/PBS pH 7.4, room temperature, n = 8
# Procedure: Radiochemical stability of [^18F]BA3 was investigated in 0.9% NaCl solution (containing 10% EtOH) and in n-octanol at room temperature for 2 h. Samples were analysed by radio-RP-HPLC (see quality control). The LogD7.4 value of [^18F]BA3 was experimentally determined in n-octanol/phosphate-buffered saline (PBS, pH = 7.4) at room temperature by the shake-flask method as described previously. Briefly, small tracer amounts (~800 kBq) were added to a mixture of 3 mL n-octanol and 3 mL PBS. After shaking for 20 min, the samples were centrifuged (10,000 rpm, 5 min) and 1 mL aliquots of the organic as well as aqueous layer were taken and measured in a gamma counter (1480 WIZARD, Perkin Elmer, Turku, Finland). Another 1 mL aliquot of the organic layer was mixed with 2 mL n-octanol and 3 mL PBS and subjected to the same procedure until constant partition coefficient values had been obtained. The measurement was performed twice in quadruplicate.
# human recombinant HDAC6 = target: T1, human recombinant HDAC6 (Homo sapiens, UniProt Q9UBN7); test: Inhibition assay HDAC6 (fluorogenic substrate ZMAL); assay type: biochemical; conditions: from IC50 values
# T1 construct: purchased BPS Bioscience Inc. 50006
# T1 sequence (Q9UBN7 1-1215): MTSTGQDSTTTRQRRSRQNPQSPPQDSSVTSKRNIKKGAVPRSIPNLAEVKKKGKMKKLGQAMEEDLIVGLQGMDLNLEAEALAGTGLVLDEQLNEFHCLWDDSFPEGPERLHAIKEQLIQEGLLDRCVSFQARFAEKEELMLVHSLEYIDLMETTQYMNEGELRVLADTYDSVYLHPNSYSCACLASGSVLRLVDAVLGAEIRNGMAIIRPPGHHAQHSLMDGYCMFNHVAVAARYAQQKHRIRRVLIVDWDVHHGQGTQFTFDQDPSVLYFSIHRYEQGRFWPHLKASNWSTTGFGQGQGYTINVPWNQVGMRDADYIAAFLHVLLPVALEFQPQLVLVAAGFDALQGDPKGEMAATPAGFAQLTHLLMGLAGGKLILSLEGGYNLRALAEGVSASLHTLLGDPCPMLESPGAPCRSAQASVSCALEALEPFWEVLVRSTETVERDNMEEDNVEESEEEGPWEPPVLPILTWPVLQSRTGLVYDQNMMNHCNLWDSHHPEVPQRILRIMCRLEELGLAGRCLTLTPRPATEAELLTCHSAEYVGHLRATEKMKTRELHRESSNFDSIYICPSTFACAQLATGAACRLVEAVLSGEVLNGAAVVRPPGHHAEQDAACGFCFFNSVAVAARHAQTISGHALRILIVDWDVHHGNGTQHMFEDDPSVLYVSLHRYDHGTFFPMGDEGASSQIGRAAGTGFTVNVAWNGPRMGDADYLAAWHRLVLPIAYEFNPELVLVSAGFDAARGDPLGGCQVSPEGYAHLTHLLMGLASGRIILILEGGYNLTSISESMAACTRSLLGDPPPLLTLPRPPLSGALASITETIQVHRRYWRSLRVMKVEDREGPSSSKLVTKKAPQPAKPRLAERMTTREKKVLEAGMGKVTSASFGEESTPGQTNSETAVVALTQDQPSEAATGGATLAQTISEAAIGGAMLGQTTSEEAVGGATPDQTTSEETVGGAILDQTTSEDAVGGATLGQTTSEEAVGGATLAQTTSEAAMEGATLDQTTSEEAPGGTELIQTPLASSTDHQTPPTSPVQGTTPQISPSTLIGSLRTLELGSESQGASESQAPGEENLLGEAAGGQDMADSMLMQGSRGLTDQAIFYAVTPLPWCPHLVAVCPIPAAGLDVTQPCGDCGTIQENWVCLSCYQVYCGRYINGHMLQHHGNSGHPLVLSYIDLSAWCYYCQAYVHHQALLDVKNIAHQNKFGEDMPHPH
# Procedure: In vitro inhibitory activities against HDAC1−3 and HDAC6 were measured as previously published with minor modifications. […] Subsequently, 50 µL trypsin solution (0.4 mg/mL trypsin in buffer: 50 mM Tris−HCl, pH = 8.0, 100 mM NaCl) was added, followed by additional 30 min of incubation at 37 °C. […] All compounds were tested at least twice in duplicates.
# [2] = Whole-body biodistribution derived from PET imaging; assay type: in vivo
# Procedure: (§1) For the time of the experiments, female CD-1 mice (n = 6; 8–15 weeks; 29–43 g) were kept in a dedicated climatic chamber with free access to water and food under a 12:12 h dark:light cycle at a constant temperature (24 °C). The animals were anaesthetized (Anaesthesia Unit U-410, agntho’s, Lidingö, Sweden) with isoflurane (2.0%, 300 mL/min) delivered in a 60% oxygen/40% air mixture (Gas Blender 100 Series, MCQ instruments, Rome, Italy) and their body temperature maintained at 37 °C with a thermal bed system. For baseline studies [^18F]BA3 was injected into the tail vein (n = 2; 6.0 ± 0.6 MBq in 150 µL isotonic saline; 9.2 ± 0.7 nmol/kg; Am: 21 GBq/μmol, EOS) followed by a dynamic 60 min PET/MR scan (Mediso nanoScan®, Budapest, Hungary). Permeability-glycoprotein efflux transporter studies consisted in pre-treatment via i.v. injection of cyclosporine A (50 mg/kg in NaCl/DMSO/kolliphor, 7:1:2, v/v; n = 2) or of vehicle (NaCl/DMSO/kolliphor, 7:1:2, v/v; n = 2) 30 min prior to [^18F]BA3 (6.0 ± 0.9 MBq; 4.9 ± 0.7 nmol/kg; Am: 32–37 GBq/μmol, EOS). Each PET image was corrected for random coincidences, dead time, scatter and attenuation (AC), based on a whole body (WB) MR scan. The reconstruction parameters for the list mode data were 3D-ordered subset expectation maximization (OSEM), 4 iterations, 6 subsets, energy window: 400–600 keV, coincidence mode: 1–5, ring difference: 81. The mice were positioned prone in a special mouse bed (heated up to 37 °C), with the head fixed to a mouth piece for the anaesthetic gas supply with isoflurane in 40% air and 60% oxygen. The PET data were collected by a continuous WB scan during the entire investigation. Following the 60 min PET scan a T1 weighted WB gradient echo sequence (TR/TE: 20/6.4 ms, NEX: 1, FA: 25, FOV: 64 × 64 mm, Matrix: 128 × 128, STh: 0.5 mm) was performed for AC and anatomical orientation. […]. The respective brain regions were identified using the mouse brain atlas template Ma-Benveniste-Mirrione-FDG. The activity data are expressed as mean SUV of the overall ROI.
# [3] = target: T2, P-glycoprotein (P-gp) efflux transporter (Mus musculus, UniProt P21447); test: P-gp efflux transporter PET study with cyclosporine A pre-treatment; assay type: in vivo; conditions: for initial brain uptake: n = 2
# T2 construct: from tissue; host or cells: living CD-1 mice, brain / blood-brain barrier
# T2 sequence (P21447 whole entry): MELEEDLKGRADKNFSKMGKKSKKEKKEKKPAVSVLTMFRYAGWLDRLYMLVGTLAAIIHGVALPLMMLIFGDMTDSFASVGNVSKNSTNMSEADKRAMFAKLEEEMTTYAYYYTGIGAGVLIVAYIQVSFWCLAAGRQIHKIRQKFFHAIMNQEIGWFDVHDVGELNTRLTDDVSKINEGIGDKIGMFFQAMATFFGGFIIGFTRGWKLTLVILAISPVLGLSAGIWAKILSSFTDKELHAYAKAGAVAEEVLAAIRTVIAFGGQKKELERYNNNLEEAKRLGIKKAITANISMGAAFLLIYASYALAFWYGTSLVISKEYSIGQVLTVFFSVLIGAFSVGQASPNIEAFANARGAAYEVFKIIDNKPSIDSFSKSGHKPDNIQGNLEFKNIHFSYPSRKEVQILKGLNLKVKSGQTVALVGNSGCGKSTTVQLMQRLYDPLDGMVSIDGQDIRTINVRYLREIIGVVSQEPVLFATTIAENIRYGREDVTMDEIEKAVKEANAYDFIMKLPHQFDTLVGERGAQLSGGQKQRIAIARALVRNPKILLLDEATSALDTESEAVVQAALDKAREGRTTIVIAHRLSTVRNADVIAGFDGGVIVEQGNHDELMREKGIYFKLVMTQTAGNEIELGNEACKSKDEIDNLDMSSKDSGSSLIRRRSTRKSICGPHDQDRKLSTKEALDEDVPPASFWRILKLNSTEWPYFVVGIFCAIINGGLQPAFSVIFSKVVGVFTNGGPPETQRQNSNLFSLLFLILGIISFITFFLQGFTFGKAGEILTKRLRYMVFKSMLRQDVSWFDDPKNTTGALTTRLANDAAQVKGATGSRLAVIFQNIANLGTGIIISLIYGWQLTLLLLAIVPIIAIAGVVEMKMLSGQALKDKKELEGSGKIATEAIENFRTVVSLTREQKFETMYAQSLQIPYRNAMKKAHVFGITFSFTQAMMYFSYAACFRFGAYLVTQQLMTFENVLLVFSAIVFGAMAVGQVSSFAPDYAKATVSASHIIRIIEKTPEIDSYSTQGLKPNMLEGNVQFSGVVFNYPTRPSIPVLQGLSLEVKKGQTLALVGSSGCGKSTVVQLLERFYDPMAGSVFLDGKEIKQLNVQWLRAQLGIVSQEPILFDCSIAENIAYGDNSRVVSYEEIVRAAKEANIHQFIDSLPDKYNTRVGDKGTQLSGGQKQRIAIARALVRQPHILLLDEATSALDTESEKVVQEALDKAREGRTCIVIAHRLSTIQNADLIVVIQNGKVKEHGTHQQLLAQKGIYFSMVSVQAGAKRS
# Procedure: as §1
smiles,measurement,setting,value
CC([18F])C(=O)NCc1ccc(C(=O)Nc2cc(-c3ccsc3)ccc2N)cc1 (stereo not drawn) [[^18F]BA3],logD,[1],1.75 ± 0.16
same,specificity ratio HDAC1 over HDAC6,human recombinant HDAC6,> 2080
same,activity in blood circulation SUV5 min,"[2]; blood, 5 min",1.47 SUV
same,activity in blood circulation SUV60 min,"[2]; blood, 60 min",1.10 SUV
same,initial uptake SUV5 min,"[2]; spleen, kidney, muscle, liver and small intestines, 5 min",< 4 SUV
same,P-gp substrate status,[3]; concluded from cyclosporine A pre-administration,substrate of P-gp
same,increase of initial brain uptake by cyclosporine A,[3]; cyclosporine A vs vehicle pre-administration,about factor two
same,initial brain uptake,[3]; pre-administration of cyclosporine A 50 mg/kg i.v. 30 min before tracer,0.42 SUV
same,initial brain uptake,[3]; pre-administration of vehicle 30 min before tracer,0.18 SUV
